Columns and labels:
Assay in all cases: RBC kinase panel
Format in all cases: biochemical
Details in all cases: ATP 10 μM, Data1, Data2
ALK4/ACVR1B = target: T1, ALK4/ACVR1B (Homo sapiens, UniProt P36896)
T1 construct: purchased Reaction Biology Corporation
In short: (§1)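 Single-point screen: 1 μM compound, duplicate wells, 369-kinase human panel, ATP fixed at 10 μM.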

BRSK1 = target: T2, BRSK1 (Homo sapiens, UniProt Q8TDC3)
T2 construct: purchased Reaction Biology Corporation
In short: as §1

CAMKK2 = target: T3, CAMKK2 (Homo sapiens, UniProt Q96RR4)
T3 construct: purchased Reaction Biology Corporation
In short: as §1

CDK6/cyclin D1 = target: T4, CDK6/cyclin D1 (Homo sapiens, UniProt Q00534)
T4 construct: purchased Reaction Biology Corporation
In short: as §1

CHK1 = target: T5, CHK1 (Homo sapiens, UniProt O14757)
T5 construct: purchased Reaction Biology Corporation
In short: as §1

EPHA3 = target: T6, EPHA3 (Homo sapiens, UniProt P29320)
T6 construct: purchased Reaction Biology Corporation
In short: as §1

GCK/MAP4K2 = target: T7, GCK/MAP4K2 (Homo sapiens, UniProt Q12851)
T7 construct: purchased Reaction Biology Corporation
In short: as §1

IKKa/CHUK = target: T8, IKKa/CHUK (Homo sapiens, UniProt O15111)
T8 construct: purchased Reaction Biology Corporation
In short: as §1

IKKb/IKBKB = target: T9, IKKb/IKBKB (Homo sapiens, UniProt O14920)
T9 construct: purchased Reaction Biology Corporation
In short: as §1

MAK = target: T10, MAK (Homo sapiens, UniProt P20794)
T10 construct: purchased Reaction Biology Corporation
In short: as §1

MST2/STK3 = target: T11, MST2/STK3 (Homo sapiens, UniProt Q13188)
T11 construct: purchased Reaction Biology Corporation
In short: as §1

PIM3 = target: T12, PIM3 (Homo sapiens, UniProt Q86V86)
T12 construct: purchased Reaction Biology Corporation
In short: as §1

PKAcb = target: T13, PKAcb (Homo sapiens, UniProt P22694)
T13 construct: purchased Reaction Biology Corporation
In short: as §1

PKG1b = target: T14, PKG1b (Homo sapiens, UniProt Q13976)
T14 construct: purchased Reaction Biology Corporation
In short: as §1

ROCK2 = target: T15, ROCK2 (Homo sapiens, UniProt O75116)
T15 construct: purchased Reaction Biology Corporation
In short: as §1

SRPK2 = target: T16, SRPK2 (Homo sapiens, UniProt P78362)
T16 construct: purchased Reaction Biology Corporation
In short: as §1

TESK1 = target: T17, TESK1 (Homo sapiens, UniProt Q15569)
T17 construct: purchased Reaction Biology Corporation
In short: as §1

T7 sequence (Q12851 whole entry): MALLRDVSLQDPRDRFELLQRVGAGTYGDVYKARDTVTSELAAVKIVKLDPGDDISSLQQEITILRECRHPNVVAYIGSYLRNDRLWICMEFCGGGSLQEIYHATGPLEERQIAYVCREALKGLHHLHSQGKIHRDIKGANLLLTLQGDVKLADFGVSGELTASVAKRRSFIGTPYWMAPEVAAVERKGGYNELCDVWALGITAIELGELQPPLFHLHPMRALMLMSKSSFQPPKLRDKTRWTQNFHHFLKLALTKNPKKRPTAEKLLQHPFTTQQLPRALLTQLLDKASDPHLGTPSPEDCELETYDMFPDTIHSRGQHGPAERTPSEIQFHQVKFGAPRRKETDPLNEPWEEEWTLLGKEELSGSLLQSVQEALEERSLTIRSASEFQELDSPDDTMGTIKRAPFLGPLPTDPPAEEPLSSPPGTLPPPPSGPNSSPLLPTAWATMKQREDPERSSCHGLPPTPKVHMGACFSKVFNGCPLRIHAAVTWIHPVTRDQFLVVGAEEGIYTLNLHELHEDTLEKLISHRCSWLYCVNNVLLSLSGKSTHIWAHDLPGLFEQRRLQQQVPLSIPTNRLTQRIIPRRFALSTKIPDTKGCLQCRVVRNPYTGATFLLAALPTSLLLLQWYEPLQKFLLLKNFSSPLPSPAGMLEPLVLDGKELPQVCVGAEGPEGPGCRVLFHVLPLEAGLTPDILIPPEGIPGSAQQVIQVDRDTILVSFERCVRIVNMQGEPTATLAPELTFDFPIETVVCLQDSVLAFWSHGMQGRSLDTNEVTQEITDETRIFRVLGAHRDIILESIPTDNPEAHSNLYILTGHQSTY
T8 sequence (O15111 whole entry): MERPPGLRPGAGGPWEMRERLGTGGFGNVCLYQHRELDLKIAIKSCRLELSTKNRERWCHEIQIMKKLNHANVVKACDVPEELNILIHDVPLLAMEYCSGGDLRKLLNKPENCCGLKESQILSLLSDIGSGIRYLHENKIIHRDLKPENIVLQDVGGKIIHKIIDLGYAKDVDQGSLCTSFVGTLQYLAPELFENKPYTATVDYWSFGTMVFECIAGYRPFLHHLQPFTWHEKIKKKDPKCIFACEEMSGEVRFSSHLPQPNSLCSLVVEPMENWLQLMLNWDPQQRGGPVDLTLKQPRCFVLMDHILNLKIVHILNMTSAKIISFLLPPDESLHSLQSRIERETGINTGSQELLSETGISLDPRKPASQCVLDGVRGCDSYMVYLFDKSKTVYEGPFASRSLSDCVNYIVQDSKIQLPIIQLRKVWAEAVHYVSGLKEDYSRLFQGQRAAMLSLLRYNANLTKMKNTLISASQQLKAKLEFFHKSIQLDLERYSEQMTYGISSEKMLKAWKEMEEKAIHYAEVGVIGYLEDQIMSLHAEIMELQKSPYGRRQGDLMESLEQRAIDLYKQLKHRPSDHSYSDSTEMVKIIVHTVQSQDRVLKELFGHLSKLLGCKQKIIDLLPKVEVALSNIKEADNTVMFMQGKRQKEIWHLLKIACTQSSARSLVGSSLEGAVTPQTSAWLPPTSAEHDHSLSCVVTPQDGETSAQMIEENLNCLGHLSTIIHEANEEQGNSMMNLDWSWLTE
T16 sequence (P78362 whole entry): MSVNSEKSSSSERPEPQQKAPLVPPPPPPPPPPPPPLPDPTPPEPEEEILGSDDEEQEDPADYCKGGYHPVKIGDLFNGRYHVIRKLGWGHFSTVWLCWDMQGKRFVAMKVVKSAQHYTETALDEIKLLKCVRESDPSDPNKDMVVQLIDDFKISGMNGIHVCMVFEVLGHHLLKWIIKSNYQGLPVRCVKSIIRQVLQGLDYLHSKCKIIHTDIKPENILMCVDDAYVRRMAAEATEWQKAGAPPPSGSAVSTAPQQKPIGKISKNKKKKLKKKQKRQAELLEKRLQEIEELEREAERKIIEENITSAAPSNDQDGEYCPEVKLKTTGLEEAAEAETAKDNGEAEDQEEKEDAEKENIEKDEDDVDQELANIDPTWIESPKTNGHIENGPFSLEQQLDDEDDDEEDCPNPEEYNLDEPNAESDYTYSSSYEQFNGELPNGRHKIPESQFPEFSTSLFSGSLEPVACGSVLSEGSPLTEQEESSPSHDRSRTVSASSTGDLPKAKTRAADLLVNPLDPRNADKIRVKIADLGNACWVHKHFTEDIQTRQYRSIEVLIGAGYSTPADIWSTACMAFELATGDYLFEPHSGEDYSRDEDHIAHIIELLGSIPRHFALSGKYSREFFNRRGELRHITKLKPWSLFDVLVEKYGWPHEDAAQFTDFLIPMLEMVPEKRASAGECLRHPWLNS
T14 sequence (Q13976 1-686 isoform Q13976-2): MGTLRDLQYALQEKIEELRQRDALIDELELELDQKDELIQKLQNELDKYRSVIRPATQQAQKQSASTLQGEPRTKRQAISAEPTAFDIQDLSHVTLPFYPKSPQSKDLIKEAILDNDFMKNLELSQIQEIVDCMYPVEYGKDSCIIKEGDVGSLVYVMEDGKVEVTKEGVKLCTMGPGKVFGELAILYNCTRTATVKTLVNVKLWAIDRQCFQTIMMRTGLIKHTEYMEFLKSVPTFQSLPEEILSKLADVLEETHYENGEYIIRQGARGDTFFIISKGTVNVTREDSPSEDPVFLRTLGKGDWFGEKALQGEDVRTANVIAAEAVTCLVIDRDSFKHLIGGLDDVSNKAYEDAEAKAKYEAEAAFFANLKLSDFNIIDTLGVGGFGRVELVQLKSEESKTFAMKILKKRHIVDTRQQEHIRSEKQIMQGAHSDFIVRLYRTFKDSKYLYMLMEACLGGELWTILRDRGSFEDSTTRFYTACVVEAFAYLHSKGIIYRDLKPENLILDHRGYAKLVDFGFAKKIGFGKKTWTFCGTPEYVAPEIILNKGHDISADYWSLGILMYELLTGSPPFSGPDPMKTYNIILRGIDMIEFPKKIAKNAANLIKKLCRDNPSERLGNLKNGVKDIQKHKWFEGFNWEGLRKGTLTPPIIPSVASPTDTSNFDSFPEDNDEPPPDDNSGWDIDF
T11 sequence (Q13188 whole entry): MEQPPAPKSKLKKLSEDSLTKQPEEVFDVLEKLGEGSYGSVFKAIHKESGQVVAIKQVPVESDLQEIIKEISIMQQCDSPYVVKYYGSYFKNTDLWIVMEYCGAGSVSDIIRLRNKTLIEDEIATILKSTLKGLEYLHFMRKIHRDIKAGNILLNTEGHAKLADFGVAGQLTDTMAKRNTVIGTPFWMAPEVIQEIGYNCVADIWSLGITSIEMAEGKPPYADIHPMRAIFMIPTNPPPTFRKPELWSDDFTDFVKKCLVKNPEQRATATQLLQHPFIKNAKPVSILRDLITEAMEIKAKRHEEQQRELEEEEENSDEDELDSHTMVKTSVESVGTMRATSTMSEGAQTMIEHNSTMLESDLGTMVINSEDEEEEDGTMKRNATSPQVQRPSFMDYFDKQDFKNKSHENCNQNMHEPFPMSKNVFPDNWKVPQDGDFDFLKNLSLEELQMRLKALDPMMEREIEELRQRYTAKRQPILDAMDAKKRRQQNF
T5 sequence (O14757 whole entry): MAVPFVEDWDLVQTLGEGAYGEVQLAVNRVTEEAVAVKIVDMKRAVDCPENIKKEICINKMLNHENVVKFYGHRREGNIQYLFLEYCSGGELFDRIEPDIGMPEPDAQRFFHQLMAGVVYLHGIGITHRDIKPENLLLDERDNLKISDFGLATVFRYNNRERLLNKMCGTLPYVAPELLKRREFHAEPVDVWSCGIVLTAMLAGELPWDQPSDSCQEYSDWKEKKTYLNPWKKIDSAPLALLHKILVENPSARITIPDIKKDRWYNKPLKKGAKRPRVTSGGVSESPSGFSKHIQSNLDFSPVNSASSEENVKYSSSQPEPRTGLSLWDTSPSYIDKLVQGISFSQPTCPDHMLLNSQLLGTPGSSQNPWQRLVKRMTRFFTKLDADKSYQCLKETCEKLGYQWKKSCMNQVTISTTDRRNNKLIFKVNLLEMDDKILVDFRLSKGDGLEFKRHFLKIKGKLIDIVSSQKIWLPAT
T9 sequence (O14920 whole entry): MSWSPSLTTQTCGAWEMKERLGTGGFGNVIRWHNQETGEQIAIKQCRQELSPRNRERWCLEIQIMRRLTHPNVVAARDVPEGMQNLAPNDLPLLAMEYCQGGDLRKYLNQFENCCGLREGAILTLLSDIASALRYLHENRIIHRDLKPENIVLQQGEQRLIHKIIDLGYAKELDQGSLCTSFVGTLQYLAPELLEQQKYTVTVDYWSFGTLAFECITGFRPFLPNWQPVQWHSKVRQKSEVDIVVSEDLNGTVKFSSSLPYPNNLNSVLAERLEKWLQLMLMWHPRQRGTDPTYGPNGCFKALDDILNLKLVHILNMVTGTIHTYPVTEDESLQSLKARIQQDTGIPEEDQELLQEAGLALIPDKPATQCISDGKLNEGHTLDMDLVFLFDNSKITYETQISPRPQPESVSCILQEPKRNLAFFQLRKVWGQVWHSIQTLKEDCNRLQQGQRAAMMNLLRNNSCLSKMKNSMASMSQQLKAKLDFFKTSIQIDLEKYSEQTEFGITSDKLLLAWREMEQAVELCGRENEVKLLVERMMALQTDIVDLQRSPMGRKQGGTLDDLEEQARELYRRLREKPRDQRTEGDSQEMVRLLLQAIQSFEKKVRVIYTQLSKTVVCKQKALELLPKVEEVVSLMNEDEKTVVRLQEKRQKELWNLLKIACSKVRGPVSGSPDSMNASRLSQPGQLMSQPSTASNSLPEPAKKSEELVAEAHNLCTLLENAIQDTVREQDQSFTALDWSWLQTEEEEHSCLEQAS

SMILES: CC(=O)Nc1nc2ccc(-c3cnc(C)c(NC(=O)OC4CCCCC4)c3)cc2s1 [PK68, cyclohexyl (5-(2-acetamidobenzo[d]thiazol-6-yl)-2-methylpyridin-3-yl)carbamate]
- Activity% (ALK4/ACVR1B; 1 μM): 95.17%
- activity at 1 µM (ALK4/ACVR1B): 95.5%
- Activity% (BRSK1; 1 μM): 101.25%
- activity at 1 µM (BRSK1): 102%
- Activity% (CAMKK2; 1 μM): 79.89%
- activity at 1 µM (CAMKK2): 80.1%
- Activity% (CDK6/cyclin D1; 1 μM): 93.73%
- activity at 1 µM (CDK6/cyclin D1): 93.8%
- Activity% (CHK1; 1 μM): 87.21%
- activity at 1 µM (CHK1): 87.3%
- Activity% (EPHA3; 1 μM): 98.26%
- activity at 1 µM (EPHA3): 102%
- Activity% (GCK/MAP4K2; 1 μM): 96.82%
- activity at 1 µM (GCK/MAP4K2): 97.6%
- Activity% (IKKa/CHUK; 1 μM): 107.86%
- activity at 1 µM (IKKa/CHUK): 117%
- Activity% (IKKb/IKBKB; 1 μM): 107.97%
- activity at 1 µM (IKKb/IKBKB): 109%
- Activity% (MAK; 1 μM): 96.81%
- activity at 1 µM (MAK): 97%
- Activity% (MST2/STK3; 1 μM): 109.16%
- activity at 1 µM (MST2/STK3): 109%
- Activity% (PIM3; 1 μM): 101.62%
- activity at 1 µM (PIM3): 104%
- Activity% (PKAcb; 1 μM): 100.88%
- activity at 1 µM (PKAcb): 103%
- Activity% (PKG1b; 1 μM): 84.59%
- activity at 1 µM (PKG1b): 85%
- Activity% (ROCK2; 1 μM): 95.49%
- activity at 1 µM (ROCK2): 95.5%
- Activity% (SRPK2; 1 μM): 100.99%
- activity at 1 µM (SRPK2): 101%
- Activity% (TESK1; 1 μM): 111.93%
- activity at 1 µM (TESK1): 118%

Source: publication PMC6591251, “Discovery of potent necroptosis inhibitors targeting RIPK1 kinase activity for the treatment of inflammatory disorder and cancer metastasis” (Cell Death & Disease, 2019)
